Results published in US8198292B2, “Vinpocetine and eburnamonine derivatives for promoting bone growth, treating renal damage and cancer, and devices thereof” (Osteogenex, Inc., priority 2008, dated 2012).
Counter-ions that a name gives are not always drawn.

How the values were obtained:
Type in all cases: in vivo
[1] = system: C57BL/6 mice; experiment: Bone volume of the tibia by pQCT after IP treatment (procedure of Example 2); details: 10 mg/kg IP
Method: Four month old male C57BL/6 mice were treated daily with saline vehicle or the sclerostin inhibitor of eburnamonine phosphate at several doses (via i.p) for 30 days. […] See also FIG. 3, showing increase in bone volume for the tibia: 5 mg/kg (D) and 0.33 mg/kg (E). […] Using the procedure set forth in Example 2, vinpocetine citrate was investigated for bone growth.

[2] = system: C57BL/6 mice; experiment: Serum osteocalcin (bone formation marker) by EIA Elisa, daily i.p. treatment for 30 days; details: for increase in osteocalcin serum levels: FIG. 4
Method: (§1) Four month old male C57BL/6 mice were treated daily with saline vehicle or the sclerostin inhibitor of eburnamonine phosphate at several doses (via i.p) for 30 days. Study endpoints included a biochemical marker of bone formation; osteocalcin, measured by EIA Elisa, and measurement of trabecular bone volume by mico-CT analysis on the proximal tibia and spine (lumbar 5). […] See also FIG. 3, showing increase in bone volume for the tibia: 5 mg/kg (D) and 0.33 mg/kg (E).

[3] = system: C57BL/6 mice; experiment: Trabecular bone volume of the proximal tibia by micro-CT, daily i.p. treatment for 30 days; details: for increase in tibia long bone bone-volume/total volume over baseline control: 30 days, micro-CT
Method: Using the assay described above and in Journal of Bone and Mineral Research 2006, 21(11), 1738-1749 (incorporated herein in its entirety), compounds of the present invention can be identified as promoting bone growth. For example, the mouse test animal is treated with a predetermined dose of a SOST antagonist candidate for a complete dosing schedule. A control mouse is treated with a control solution, preferably a non-irritating buffer solution or other carrier. Once the dosing schedule has been completed, both test and control animals are examined with sacrifice using micro-CT to determine the quantity of bone formation present.
as §1

[4] = system: C57BL/6 mice; experiment: Bone volume of the spine (lumbar 5) by micro-CT, daily i.p. treatment for 30 days; details: i.p. daily 30 days, dose not stated
Method: as §1

| Compound | increase in bone volume of the tibia (pQCT) [1] | increase in osteocalcin serum levels ([2]; 10 mg/kg, over baseline) | increase in tibia long bone bone-volume/total volume over baseline control ([3]; FIG. 1 (B), 5 mg/kg i.p. daily) | increase in tibia long bone bone-volume/total volume over baseline control ([3]; FIG. 1 (C), 1 mg/kg i.p. daily) | increase in tibia long bone bone-volume/total volume compared to baseline controls ([3]; FIG. 3 (D), 5 mg/kg) | increase in tibia long bone bone-volume/total volume compared to baseline controls ([3]; FIG. 3 (E), 0.33 mg/kg) | percent change in serum osteocalcin increase versus saline controls ([2]; FIG. 2, 5 mg/kg i.p. daily, 30 days, mice) | increase in osteocalcin serum levels ([2]; 0.33 mg/kg, mice) | increase in bone volume of lumbar 5 (U-CT) [4] |
| --- | --- | --- | --- | --- | --- | --- | --- | --- | --- |
| CCOC(=O)C1=CC2(CC)CCCN3CCc4c(n1c1ccccc41)C32 (stereo not drawn) [vinpocetine citrate] | 8% | 62% | – | – | – | – | – | – | – |
| CCC12CCCN3CCc4c(n(c5ccccc45)C(=O)C1)C32 (stereo not drawn) [eburnamonine phosphate] | – | – | 17% | 10% | 9% | 17% | 35% | 39% | 52% |
